# Results as given in US8232308B2, “Methods for treating a disease in which Rho kinase is involved” (UBE Industries, Ltd., priority 2003, dated 2012).
# Where a name gives a salt, the structure may show the parent alone.
# Target: T1, activated ROCK II (Rattus norvegicus, UniProt Q62868)
# T1 construct: purchased Upstate Biotechnology 14-338
# Test: Test for Evaluation of Inhibiting Activity to Rho Kinase
# Type: biochemical
# Conditions: S6 Kinase Substrate Peptide, [γ-32P]ATP, 30° C. for 15 minutes, Ki=IC50/(1+S/Km)
# Experimental: In order to find the utility of the present invention compound, a Rho kinase inhibiting activity of the present invention compound was evaluated. The details thereof will be illustrated under the item of “Pharmacological Test (Test for Evaluation of Rho Kinase Inhibiting Activity)” in the Examples which will be mentioned later. The evaluation of the Rho kinase inhibiting activity of the present invention compound was carried out in accordance with the methods mentioned in J. Biol. Chem., 274, 32418 (1999) by Kaibuchi, et al. and mentioned in the instruction manual for use attached to the commercially available activated ROCK II [Upstate Biotechnology, Catalog No. 14-338 (5 units/50 μl)].
# A. Test for Evaluation of Inhibiting Activity to Rho Kinase
# In order to test the usefulness of the compounds of the present invention as a Rho kinase inhibitor, inhibiting activities of the compounds of the present invention to Rho kinase were evaluated and investigated in accordance with the methods of Kaibuchi, et al. mentioned in J. Biol. Chem., 274, 32418, 1999 and also with the methods mentioned in the instruction manual for use attached to commercially available activated ROCK II [Upstate Biotechnology, Catalog No. 14-338, (5 unite/50 μl)]. With regard to the test compounds, the compounds 5-1 to 5-73 (except the compounds 5-2, 5-9, 5-18, 5-37 and 5-38) were used.
# A buffer was prepared so as to make tris(hydroxymethyl)aminomethane (Tris) (pH 7.5), 50 mM, ethyleneglycol bis(β-aminoethyl ether)-N,N,N′,N′-tetraacetic acid (EGTA), 2 mM, ethylenediaminetetraacetic acid (EDTA), 1 mM, magnesium chloride (MgCl2) 5 mM, β-glycerol phosphate, 5 mM, and dithiothreitol (DTT), 2 mM, by mixing them.
# A mixed liquid of a 10 mM ATP solution with a commercially available [γ-^32P]ATP solution [NEN, Code No. NEG-002A] was diluted with the buffer to prepare a 300 μM ATP [γ-^32P]ATP solution.
# A Commercially Available Activated ROCK II [Upstate Biotechnology, Catalog No. 14-338, (5 Units/50 μl)] was diluted to a concentration of 1/100 with the buffer to prepare an activated ROCK II solution.
# A S6 Kinase Substrate Peptide [Upstate Biotechnology, Catalog No. 12-124,] (2 mg) was dissolved in distilled water to prepare a 1 mM substrate solution.
# A test compound was dissolved in 10% aqueous dimethyl sulfoxide solution.
# 1) The test compound solution is placed in a microtube.
# 2) The 300 μM ATP [γ-^32P]ATP solution is added to the microtube followed by cooling to 4° C.
# 3) After that, a permanently activated ROCK II solution, 1 mM substrate solution and buffer are added to each microtube in that order, and the whole is mixed and cooled again at 4° C.
# 4) The microtube is placed in an incubator (30° C.) and the mixture is subjected to reaction for 15 minutes.
# 5) After cooling to 4° C., a 250 mM phosphoric acid solution (5 μl) is added to each microtube to stop the reaction.
# 6) The reaction solution (30 μl) is taken out from each microtube and spotted on a filter paper (Whatman P81) so that the reaction product (phosphorylated substrate) is adsorbed to the filter paper.
# 7) The filter paper is transferred to a beaker in which a 75 mM phosphoric acid solution is placed and shaken for 5 minutes so that unreacted [γ-^32P]AfP is washed out. The washing operation as such is carried out four times.
# 8) After that, the filter paper is dipped in ethanol to dehydrate and energy amount (radioactivity) of the reaction product adsorbed to the filter paper is measured with a liquid scintillation counter.
# The IC50 value was calculated by an XL-fit (IDBS).
# The Ki value is calculated by the following formula. S is an ATP concentration contained in the reaction solution while Km is a Michaelis-Menten constant. Ki=IC50/(1+S/Km)
# T1 sequence (Q62868 11-550 limits assumed): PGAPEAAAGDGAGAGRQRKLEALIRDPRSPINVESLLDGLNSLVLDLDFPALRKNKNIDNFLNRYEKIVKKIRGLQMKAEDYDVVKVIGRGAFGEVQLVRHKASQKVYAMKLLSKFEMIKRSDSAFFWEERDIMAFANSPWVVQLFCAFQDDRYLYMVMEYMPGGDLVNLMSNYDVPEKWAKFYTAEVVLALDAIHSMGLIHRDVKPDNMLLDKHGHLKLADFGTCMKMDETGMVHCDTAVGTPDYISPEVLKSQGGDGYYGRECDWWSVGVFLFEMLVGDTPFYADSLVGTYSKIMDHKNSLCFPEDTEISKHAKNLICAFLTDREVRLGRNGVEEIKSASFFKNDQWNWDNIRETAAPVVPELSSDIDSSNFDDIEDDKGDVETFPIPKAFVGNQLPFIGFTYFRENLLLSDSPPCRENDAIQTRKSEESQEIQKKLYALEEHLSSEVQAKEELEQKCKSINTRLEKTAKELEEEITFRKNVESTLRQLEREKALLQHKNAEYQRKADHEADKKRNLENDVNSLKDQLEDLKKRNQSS
row,Structure (SMILES),Ki
1,"CC(C)(N)c1ccc(-c2ccc3[nH]ncc3c2)cc1 [Compound 5-1, 5-[4-(1-amino-1-methylethyl)phenyl]-1H-indazole dihydrochloride]",19 nM
2,"CC(C)(N)c1ccc(-c2ccc3[nH]ncc3c2)nc1 [Compound 5-3, 5-[5-(1-Amino-1-methylethyl)pyridin-2-yl]-1H-indazole trihydrochloride]",20 nM
3,"CC(C)(N)c1ccc(-c2ccc3[nH]ncc3c2[N+](=O)[O-])cc1 [Compound 5-4, 5-[4-(1-Amino-1-methylethyl)phenyl]-4-nitro-1H-indazole monohydrochloride]",28 nM
4,"CC(C)(N)c1ccc(-c2ccc3[nH]ncc3c2N)cc1 [Compound 5-5, 4-Amino-5-[4-(1-amino-1-methylethyl)phenyl]-1H-indazole trihydrochloride]",44 nM
5,"CC(C)(N)c1ccc(-c2ccc3[nH]ncc3c2NCc2ccccc2)cc1 [Compound 5-6, 5-[4-(1-Amino-1-methylethyl)phenyl]-4-benzylamino-1H-indazole dihydrochloride]",260 nM
6,"CNc1c(-c2ccc(C(C)(C)N)cc2)ccc2[nH]ncc12 [Compound 5-7, 5-[4-(1-Amino-1-methylethyl)phenyl]-4-methylamino-1H-indazole trihydrochloride]",15 nM
7,"COC(=O)c1n[nH]c2ccc(-c3ccc(C(C)(C)N)cc3)cc12 [Compound 5-8, 5-[4-(1-Amino-1-methylethyl)phenyl]-3-methoxy-carbonyl-1H-indazole dihydrochloride]",97 nM
8,"CC(C)(N)c1ccc(-c2ccc3[nH]nc(C(N)=O)c3c2)cc1 [Compound 5-10, 3-Aminocarbonyl-5-[4-(1-amino-1-methylethyl)phenyl]-1H-indazole monohydrochloride]",134 nM
9,"CC(C)(N)c1ccc(-c2ccc3[nH]nc(N)c3c2)cc1 [Compound 5-11, 3-Amino-5-[4-(1-amino-1-methylethyl)phenyl]-1H-indazole trihydrochloride]",144 nM
10,"CC(C)(N)c1ccc(-c2ccc3[nH]nc(C=NO)c3c2)cc1 [Compound 5-12, 5-[4-(1-Amino-1-methylethyl)phenyl]-3-hydroxyimino-methyl-1H-indazole monohydrochloride]",7.5 nM
11,"CC(C)(N)c1ccc(-c2ccc3[nH]nc(C#N)c3c2)cc1 [Compound 5-13, 5-[4-(1-Amino-1-methylethyl)phenyl]-3-cyano-1H-indazole dihydrochloride]",103 nM
12,"CC(C)(N)c1ccc(-c2ccc3[nH]nc(CO)c3c2)cc1 [Compound 5-14, 5-[4-(1-Amino-1-methylethyl)phenyl]-3-hydroxymethyl-1H-indazole dihydrochloride]",142 nM
13,"C=C(C)c1n[nH]c2ccc(-c3ccc(C(C)(C)N)cc3)cc12 [Compound 5-15, 5-[4-(1-Amino-1-methylethyl)phenyl]-3-(1-methyl-vinyl)-1H-indazole monotrifluoroacetate]",56 nM
14,"CN(C)c1c(-c2ccc(C(C)(C)N)cc2)ccc2[nH]ncc12 [Compound 5-16, 5-[4-(1-Amino-1-methylethyl)phenyl]-4-dimethylamino-1H-indazole trihydrochloride]",16 nM
15,"CC(C)(N)c1ccc(-c2ccc3[nH]ncc3c2[N+](=O)[O-])nc1 [Compound 5-17, 5-[5-(1-Amino-1-methylethyl)pyridin-2-yl]-4-nitro-1H-indazole dihydrochloride]",199 nM
16,"NCc1ccc(-c2ccc3[nH]ncc3c2[N+](=O)[O-])cc1 [Compound 5-19, 5-[4-(Aminomethyl)phenyl]-4-nitro-1H-indazole dihydrochloride]",55 nM
17,"NCc1ccc(-c2ccc3[nH]ncc3c2N)cc1 [Compound 5-20, 4-Amino-5-[4-(aminomethyl)phenyl]-1H-indazole trihydrochloride]",61 nM

row,Structure (SMILES),Ki
1,"Nc1c(-c2ccc(C3(N)CCCC3)cc2)ccc2[nH]ncc12 [Compound 5-21, 4-Amino-5-[4-(1-aminocyclopentyl)phenyl]-1H-indazole dihydrochloride]",26 nM
2,"CCC(N)(CC)c1ccc(-c2ccc3[nH]ncc3c2N)cc1 [Compound 5-22, 4-Araino-5-[4-(1-amino-1-ethylpropyl)phenyl]-1H-indazole trihydrochloride]",38 nM
3,"CN(C)c1c(-c2ccc(CN)cc2)ccc2[nH]ncc12 [Compound 5-23, 5-[4-(Aminomethyl)phenyl]-4-dimethylamino-1H-indazole trihydrochloride]",29 nM
4,"CN(C)c1c(-c2ccc(C3(N)CCCC3)cc2)ccc2[nH]ncc12 [Compound 5-24, 5-[4-(1-Aminocyclopentyl)phenyl]-4-dimethylamino-1H-indazole trihydrochloride]",14 nM
5,"CCC(N)(CC)c1ccc(-c2ccc3[nH]ncc3c2N(C)C)cc1 [Compound 5-25, 5-[4-(1-Amino-1-ethylpropyl)phenyl]-4-dimethylamino-1H-indazole trihydrochloride]",23 nM
6,"CC(N)c1ccc(-c2ccc3[nH]ncc3c2N(C)C)cc1 (stereo not drawn) [Compound 5-26, 5-[4-(1-Aminoethyl)phenyl]-4-dimethylamino-1H-indazole trihydrochloride]",27 nM
7,"CC(C)(N)c1cnc(-c2ccc3[nH]ncc3c2)c(Cl)c1 [Compound 5-27, 5-[5-(1-Amino-1-methylethyl)-3-chloropyridin-2-yl]-1H-indazole trihydrochloride]",86 nM
8,"CCc1c(-c2ccc(C(C)(C)N)cn2)ccc2[nH]ncc12 [Compound 5-28, 5-[5-(1-Amino-1-methylethyl)pyridin-2-yl]-4-ethyl-1H-indazole trihydrochloride]",15 nM
9,"CC(C)(N)c1ccc(-c2ccc3[nH]ncc3c2C2CC2)nc1 [Compound 5-29, 5-[5-(1-Amino-1-methylethyl)pyridin-2-yl]-4-cyclo-propyl-1H-indazole trihydrochloride]",2.7 nM
10,"C=Cc1c(-c2ccc(C(C)(C)N)cn2)ccc2[nH]ncc12 [Compound 5-30, 5-[5-(1-Amino-1-methylethyl)pyridin-2-yl]-4-vinyl-1H-indazole trihydrochloride]",17 nM
11,"CCN(CC)c1c(-c2ccc(C(C)(C)N)cc2)ccc2[nH]ncc12 [Compound 5-31, 5-[4-(1-Amino-1-methylethyl)phenyl]-4-diethylamino-1H-indazole trihydrochloride]",614 nM
12,"CC(C)(N)c1ccc(-c2ccc3[nH]ncc3c2CCO)cc1 [Compound 5-32, 5-[4-(1-Amino-1-methylethyl)phenyl]-4-(2-hydroxy-ethyl)-1H-indazole dihydrochloride]",47 nM
13,"CC(C)(N)c1ccc(-c2ccc3[nH]ncc3c2CCO)nc1 [Compound 5-33, 5-[5-(1-Amino-1-methylethyl)pyridin-2-yl]-4-(2-hydroxyethyl)-1H-indazole trihydrochloride]",234 nM
14,"CC(O)c1c(-c2ccc(C(C)(C)N)cc2)ccc2[nH]ncc12 (stereo not drawn) [Compound 5-34, 5-[4-(1-Amino-1-methylethyl)phenyl]-4-(1-hydroxy-ethyl)-1H-indazole dihydrochloride]",294 nM
15,"CC(C)(N)c1ccc(-c2ccc3[nH]ncc3c2CO)cc1 [Compound 5-35, 5-[4-(1-Amino-1-methylethyl)phenyl]-4-hydroxymethyl-1H-indazole dihydrochloride]",139 nM
16,"CC(C)(N)c1ccc(-c2ccc3[nH]ncc3c2C#N)cc1 [Compound 5-36, 5-[4-(1-Amino-1-methylethyl)phenyl]-4-cyano-1H-indazole monohydrochloride]",35 nM
